Legend:
Neuraminidase [1] = biological target: T1, Neuraminidase (Influenza A virus, UniProt A5Z252); assay: Inhibition of Influenza A virus A/chicken/china/1220/2012(H5N1) Neuraminidase N1
Neuraminidase [2] = biological target: T2, Neuraminidase (Influenza A virus, UniProt B4URF0); set-up: species or system A/chicken/china/415/2013(H9N2)
Neuraminidase [3] = biological target: T1, Neuraminidase; assay: Inhibition of Influenza A virus H1N1 Neuraminidase N1
Neuraminidase [4] = biological target: T1, Neuraminidase; assay: Inhibition of Influenza A virus H3N2 Neuraminidase N1
Neuraminidase [5] = biological target: T1, Neuraminidase; assay: Binding affinity to Influenza A virus H5N1 Neuraminidase N1
Neuraminidase [6] = biological target: T2, Neuraminidase; assay: Binding affinity to Influenza A virus A/Paris/2590/2009 H1N1 Neuraminidase N1
Neuraminidase [7] = biological target: T1, Neuraminidase; assay: Binding affinity to Influenza A virus H3N2 Neuraminidase N1

T2 sequence (B4URF0 whole entry): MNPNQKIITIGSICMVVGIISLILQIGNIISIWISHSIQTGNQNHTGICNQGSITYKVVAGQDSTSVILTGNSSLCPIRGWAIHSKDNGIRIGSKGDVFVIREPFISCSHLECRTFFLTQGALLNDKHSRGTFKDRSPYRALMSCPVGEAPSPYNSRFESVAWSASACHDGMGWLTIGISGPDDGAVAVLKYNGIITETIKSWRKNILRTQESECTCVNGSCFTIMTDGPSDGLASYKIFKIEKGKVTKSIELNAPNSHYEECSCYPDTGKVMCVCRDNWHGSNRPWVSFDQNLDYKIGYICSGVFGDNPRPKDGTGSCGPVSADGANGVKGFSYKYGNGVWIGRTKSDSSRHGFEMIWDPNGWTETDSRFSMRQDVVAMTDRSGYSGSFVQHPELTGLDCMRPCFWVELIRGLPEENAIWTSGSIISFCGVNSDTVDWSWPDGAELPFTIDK

Work on `CCCCCN(C(=N)N)[C@H]1CC(C(=O)O)=C[C@@H](OC(CC)CC)[C@@H]1NC(C)=O` yielded an IC50 (Neuraminidase [1]) of 780 nM and an IC50 (Neuraminidase [2]) of over 5000 nM.
With `CCCCN(C(=N)N)[C@H]1CC(C(=O)O)=C[C@@H](OC(CC)CC)[C@@H]1NC(C)=O` the IC50 (Neuraminidase [1]) was 1140 nM and the IC50 (Neuraminidase [2]) was 1480 nM.
With `CC(=O)N[C@H]1[C@H]([C@H](O)[C@H](O)CO)OC(C(=O)O)=C[C@@H]1NC(=N)NC(=O)CSc1cccc2ccccc12` the IC50 (Neuraminidase [3]) was 21 nM and the IC50 (Neuraminidase [4]) was 25 nM.
Work on `CCC(CC)O[C@@H]1C=C(C(=O)O)C[C@H](NCc2cccs2)[C@H]1NC(C)=O` yielded an IC50 (Neuraminidase [1]) of 15 nM and an IC50 (Neuraminidase [2]) of 740 nM.
With `CCC(CC)O[C@@H]1C=C(C(=O)O)C[C@H](NCc2ccccc2Br)[C@H]1NC(C)=O` the IC50 (Neuraminidase [1]) was 13 nM and the IC50 (Neuraminidase [2]) was 1150 nM.
`CCC(CC)O[C@@H]1C=C(C(=O)O)C[C@H](N(Cc2cccs2)C(=N)N)[C@H]1NC(C)=O` showed an IC50 (Neuraminidase [1]) of 200 nM and an IC50 (Neuraminidase [2]) of 210 nM.
`CCC(CC)CN[C@H]1CC(C(=O)O)=C[C@@H](OC(CC)CC)[C@@H]1NC(C)=O` gave an IC50 (Neuraminidase [1]) of 27 nM and an IC50 (Neuraminidase [2]) of 300 nM.
`C=CCOc1ccccc1CN[C@H]1CC(C(=O)O)=C[C@@H](OC(CC)CC)[C@@H]1NC(C)=O` was tested, and the IC50 (Neuraminidase [1]) was 90 nM and the IC50 (Neuraminidase [2]) was 4700 nM.
Compound `CCC(CC)O[C@@H]1C=C(C(=O)O)C[C@H](NCc2ccccc2F)[C@H]1NC(C)=O` has an IC50 (Neuraminidase [1]) of 10 nM and an IC50 (Neuraminidase [2]) of 2720 nM.
`CCC(CC)O[C@@H]1C=C(C(=O)O)C[C@H](NCc2ccccc2Cl)[C@H]1NC(C)=O` showed an IC50 (Neuraminidase [1]) of 3.6 nM and an IC50 (Neuraminidase [2]) of 980 nM.
`CCC(CC)O[C@@H]1C=C(C(=O)O)C[C@H](NC(=N)N)[C@H]1NC(C)=O` was tested, and the IC50 (Neuraminidase [1]) was 6.9 nM and the IC50 (Neuraminidase [2]) was 6.4 nM.
For `CCC(CC)O[C@@H]1C=C(C(=O)O)C[C@H](NCc2ccccc2OC)[C@H]1NC(C)=O`, the IC50 (Neuraminidase [1]) was 31 nM and the IC50 (Neuraminidase [2]) was 1640 nM.
`CC(=O)N[C@H]1C([C@H](O)[C@H](O)CO)OC(C(=O)O)=C(C/C=C/c2ccc(C)cc2)[C@@H]1O` (stereo partly drawn) was tested, and the Ki (Neuraminidase [5]) was 7300 nM, the Ki (Neuraminidase [6]) was 1700 nM and the Ki (Neuraminidase [7]) was 219000 nM.
For `CCC(CC)O[C@@H]1C=C(C(=O)O)C[C@H](N(CC(C)C)C(=N)N)[C@H]1NC(C)=O`, the IC50 (Neuraminidase [1]) was 230 nM and the IC50 (Neuraminidase [2]) was over 5000 nM.
Work on `CCC(CC)O[C@@H]1C=C(C(=O)O)C[C@H](NCc2ccccc2O)[C@H]1NC(C)=O` yielded an IC50 (Neuraminidase [1]) of 21 nM and an IC50 (Neuraminidase [2]) of over 5000 nM.
Work on `CCC(CC)O[C@@H]1C=C(C(=O)O)C[C@H](N(Cc2ccc(C(C)C)cc2)C(=N)N)[C@H]1NC(C)=O` yielded an IC50 (Neuraminidase [1]) of 1440 nM and an IC50 (Neuraminidase [2]) of 2370 nM.
In the case of `CCC(CC)O[C@@H]1C=C(C(=O)O)C[C@H](NCCCc2ccccc2)[C@H]1NC(C)=O`, the IC50 (Neuraminidase [1]) is reported as 32 nM and the IC50 (Neuraminidase [2]) is reported as over 5000 nM.
For `CCC(CC)O[C@@H]1C=C(C(=O)O)C[C@H](NCc2ccc(-c3ccccc3)cc2-c2ccccc2)[C@H]1NC(C)=O`, the IC50 (Neuraminidase [1]) was 43 nM and the IC50 (Neuraminidase [2]) was 3.2 nM.
With `CCC(CC)O[C@@H]1C=C(C(=O)NO)C[C@H](NC(=N)N)[C@H]1NC(C)=O` the IC50 (Neuraminidase [1]) was over 100 nM and the IC50 (Neuraminidase [2]) was 200 nM.
`CCC(CC)O[C@@H]1C=C(C(=O)O)C[C@H](N(Cc2ccccc2)C(=N)N)[C@H]1NC(C)=O` gave an IC50 (Neuraminidase [1]) of 1170 nM and an IC50 (Neuraminidase [2]) of 2600 nM.
In the case of `CCC(CC)O[C@@H]1C=C(C(=O)NO)C[C@H](N)[C@H]1NC(C)=O`, the IC50 (Neuraminidase [1]) is reported as over 100 nM and the IC50 (Neuraminidase [2]) is reported as 110 nM.
`CCC(CC)O[C@@H]1C=C(C(=O)O)C[C@H](N(CCC(C)C)C(=N)N)[C@H]1NC(C)=O` was tested, and the IC50 (Neuraminidase [1]) was 370 nM and the IC50 (Neuraminidase [2]) was over 5000 nM.
For `CCC(CC)O[C@@H]1C=C(C(=O)O)C[C@H](NCc2ccc(-c3ccccc3)cc2)[C@H]1NC(C)=O`, the IC50 (Neuraminidase [1]) was 1.9 nM and the IC50 (Neuraminidase [2]) was 1200 nM.
For `CCC(CC)CN(C(=N)N)[C@H]1CC(C(=O)O)=C[C@@H](OC(CC)CC)[C@@H]1NC(C)=O`, the IC50 (Neuraminidase [1]) was 950 nM and the IC50 (Neuraminidase [2]) was over 5000 nM.
In the case of `CCCCN[C@H]1CC(C(=O)O)=C[C@@H](OC(CC)CC)[C@@H]1NC(C)=O`, the IC50 (Neuraminidase [1]) is reported as 19 nM and the IC50 (Neuraminidase [2]) is reported as 2280 nM.
With `CCC(CC)O[C@@H]1C=C(C(=O)O)C[C@H](N(Cc2ccc(-c3ccccc3)cc2)C(=N)N)[C@H]1NC(C)=O` the IC50 (Neuraminidase [1]) was 150 nM and the IC50 (Neuraminidase [2]) was 470 nM.
`CCC(CC)O[C@@H]1C=C(C(=O)O)C[C@H](NCc2ccccc2OCc2ccco2)[C@H]1NC(C)=O` gave an IC50 (Neuraminidase [1]) of 59 nM and an IC50 (Neuraminidase [2]) of 1530 nM.
For `CCC(CC)O[C@@H]1C=C(C(=O)O)C[C@H](NCC(C)C)[C@H]1NC(C)=O`, the IC50 (Neuraminidase [1]) was 78 nM and the IC50 (Neuraminidase [2]) was over 5000 nM.
In the case of `CCC(CC)O[C@@H]1C=C(C(=O)O)C[C@H](NCCCN)[C@H]1NC(C)=O`, the IC50 (Neuraminidase [1]) is reported as over 100 nM and the IC50 (Neuraminidase [2]) is reported as 950 nM.
Compound `CCC(CC)O[C@@H]1C=C(C(=O)O)C[C@H](NC/C=C/c2ccccc2)[C@H]1NC(C)=O` has an IC50 (Neuraminidase [1]) of 14 nM and an IC50 (Neuraminidase [2]) of 4020 nM.
For `CCC(CC)O[C@@H]1C=C(C(=O)O)C[C@H](NCc2ccc(-c3cccs3)cc2)[C@H]1NC(C)=O`, the IC50 (Neuraminidase [1]) was 2.1 nM and the IC50 (Neuraminidase [2]) was 3520 nM.
With `CCC(CC)O[C@@H]1C=C(C(=O)O)C[C@H](NCc2ccccc2)[C@H]1NC(C)=O` the IC50 (Neuraminidase [1]) was 7.1 nM and the IC50 (Neuraminidase [2]) was 2440 nM.
`CCC(CC)O[C@@H]1C=C(C(=O)O)C[C@H](NCc2ccc(-c3ccccc3)cc2Cl)[C@H]1NC(C)=O` gave an IC50 (Neuraminidase [1]) of 11 nM and an IC50 (Neuraminidase [2]) of 2020 nM.
`CCCN(C(=N)N)[C@H]1CC(C(=O)O)=C[C@@H](OC(CC)CC)[C@@H]1NC(C)=O` gave an IC50 (Neuraminidase [1]) of 670 nM and an IC50 (Neuraminidase [2]) of over 5000 nM.
With `CCC(CC)O[C@@H]1C=C(C(=O)O)C[C@H](N(Cc2ccccc2OC)C(=N)N)[C@H]1NC(C)=O` the IC50 (Neuraminidase [1]) was 550 nM and the IC50 (Neuraminidase [2]) was 490 nM.
`CCC(CC)O[C@@H]1C=C(C(=O)O)C[C@H](N(CCCc2ccccc2)C(=N)N)[C@H]1NC(C)=O` showed an IC50 (Neuraminidase [1]) of 790 nM and an IC50 (Neuraminidase [2]) of over 5000 nM.
